One molecule from patent US20250099357A1, “ANT[…] WITH BETA CARBOLINE ALKALOID AND PHENOLIC ACID AND CO[…]” (Conopco, Inc., d/b/a UNILEVER, priority 2021, published 2025) can be followed below.

In assay [1] the test system is Enterobacter gergoviae ATCC 33028. Description: Liquid broth assay (MIC and checkerboard) against Enterobacter gergoviae. To be noted: Pluralibacter gergoviae, ATCC33028, component by itself, 30° C., 24 hours, OD600, <25% growth vs control, read-out: minimal inhibitory concentration (MIC). It is filed as cell-based. The text has this: (§1) Naturally derived antimicrobial systems were made, as shown below by combining the beta carboline alkaloid and phenolic acid. Two pools were set up and each pool contained 1 organism. The strains involved were Enterobacter gergoviae ATCC 33028 of the family Pluralibacter gergoviae, a Gram-negative and Aspergillus brasiliensis ATCC 16404. The FIC test range was 16 times greater than the projected MIC for each sample.
(§2) The differing behaviors of inhibitory antimicrobials in isolation and mixtures have been widely explored using the concept of the Fractional Concentration and Fractional Inhibitory Concentration (FIC). See for instance JRW Lambert and R Lambert, J. Appl. Microbiol 95, 734 (2003); T. Jadavji, CG Prober and R Cheung, Antibacterial Agents and Chemotherapy 26, 91 (1984), and WO 2004/006876. MIC is the minimum inhibitory concentration a component prevents visible growth of a microbe. The FC and FIC parameters can be defined as follows: […]
(§3) Liquid broth assays (MIC and checkerboard) were conducted to identify the minimum concentration(s) of individual and binary combinations of natural preservation materials. […] Each of the two-preservation chemical/broth mixes was then combined in a third 96 well plate at varying concentrations and then inoculated with 1-5x106 microorganisms and incubated at 30° C. for 24 hours, after which optical densities at OD600 nm were measured.

In assay [2] the test system is Aspergillus brasiliensis ATCC 16404. Description: Liquid broth assay (MIC and checkerboard) against Aspergillus brasiliensis. Type of assay: cell-based. The settings on record: ATCC16404, component by itself, 30° C., 24 hours, OD600, <25% growth vs control.
From the text: as §1, §2, §3

Consider `COc1cc(C(=O)O)cc(OC)c1O` [Syringic Acid, 4-Hydroxy-3,5-dimethoxybenzoic acid], for which the MIC in assay [1] and in assay [2] was over 50 mg/mL in each case.
